Experimental data taken from patent US10260105B2, “MiR-320e and colorectal cancer” (BAYLOR RESEARCH INSTITUTE, priority 2014, dated 2019).

System: stage II and III CRC
Test: Kaplan-Meier DFS and OS estimates in validation cohort patients treated with 5-FU-based adjuvant chemotherapy
Type: in vivo
Conditions: 167 stage II and III CRC patients, 5-FU-based adjuvant chemotherapy for 6 months after tumor resection
Description: Validation Patient Cohort. This group included a total of 237 CRC patients (65 stage II, 102 stage III, and 70 stage IV) that were enrolled as part of a clinical trial conducted at the Hospital Clinic, Barcelona, Spain. Patients in this clinical trial were enrolled between 1996 and 2008, and the median follow-up was 4.7 years in patients that were alive at last follow-up, and 3.5 years for all patients. All stage II and III patients were treated with 5-FU-based adjuvant chemotherapy following resection of the primary tumor; all stage IV patients were treated with 5-FU and oxaliplatin (Takahashi, et al., 2012). Normal colonic mucosa (n=20) from healthy individuals was obtained from the Pathology Department of the Hospital Clinic of Barcelona and included as controls. This study was approved by the Institutional Review Board (IRB) of Hospital Clinic, Barcelona, Spain, and a written informed consent was obtained from all patients.
Distributions in the validation cohort are presented as mean (SD) or median (range) depending on level of skewness in the data for continuous variables, or as counts (percentage) for categorical variables. Nonparametric tests (rank sum, Kruskal Wallace) were used to compare expression between groups. Kaplan Meier and Cox regression models were used to assess association with time to event outcomes that included overall survival (OS), defined as time from diagnosis to death, and disease free survival (DFS) defined as time from diagnosis to disease recurrence or death. Due to the scale of miR320e expression, hazard ratios are presented as the change in risk of a person at the 75th percentile relative to a person at the 25th percentile of miR-320e distribution. This can be interpreted as the increase in risk due to a patient moving from the middle of the bottom half of the miR-320e distribution to the middle of the top half of the distribution. Bootstrapping was used to calculate an optimism corrected c-index, analogous to the area under the receiver operating characteristic curve (Steyerberg, et al., 2011). A c-index of 0.5 denotes random predictions, whereas a c index of 1 denotes perfect predictions.
Higher expression miR320e is associated with poor outcome in patients with stage II and III CRC. To determine the potential prognostic significance of miR-320e expression, Cox regression models were utilized with the miRNA expression levels considered as continuous variables. There were 167 stage II and III CRC patients in the validation cohort with sufficient data for these analyses. All of these patients were treated with 5-FU-based adjuvant chemotherapy for 6 months subsequent to tumor resection. Of these patients, 65 out of 167 (38.9%) were stage II and the remainder were stage III. […]

O=c1[nH]cc(F)c(=O)[nH]1 [5-FU, 5-fluorouracil]
2-year Kaplan-Meier DFS estimate (2 years): 78.32%
2-year OS estimate (2 years): 91.57%
5-year Kaplan-Meier DFS estimate (5 years): 63.96%
5-year OS estimate (5 years): 78.52%
